Consider three compounds from the NIST ThermoML archive (doi:10.1021/je7005727).

The structures appear in SMILES notation. Numbers after ± are expanded uncertainties.

The conditions of this data set: 101.33 kPa, Liquid; for speed of sound: Sing-around technique in a fixed-path interferometer.

Regarding `CCCCCO` [pentan-1-ol], the mass density (commonly mass per unit of volume) was 814.738 ± 0.76 kg/m3 (293.15 K), 811.067 ± 0.77 kg/m3 (298.15 K) and 807.366 ± 0.78 kg/m3 (303.15 K). In addition, the speed of sound (usually how fast a sound wave travels through the sample) (293.15 K) came to 1292.5 ± 1.2 m/s, the speed of sound (298.15 K) was determined as 1275.1 ± 1.2 m/s and the speed of sound (303.15 K) came out at 1258.5 ± 1.2 m/s.

On to `CCCCO` [butan-1-ol], for which the mass density runs as follows: (293.15 K) 809.644 ± 0.46 kg/m3; (298.15 K) 805.842 ± 0.47 kg/m3; (303.15 K) 801.995 ± 0.47 kg/m3. Also, the speed of sound reads like this: (293.15 K) 1256.7 ± 0.82 m/s; (298.15 K) 1239.2 ± 0.81 m/s; (303.15 K) 1222.7 ± 0.81 m/s.

Regarding `CCCCCCO` [hexan-1-ol], the speed of sound stood at 1320.3 ± 1.2 m/s (293.15 K), 1303 ± 1.2 m/s (298.15 K) and 1286.3 ± 1.2 m/s (303.15 K).
